Converted amounts (≈) assume the structure as drawn. The source made the active and inactive calls. The calls are words filed in the database; no cut-off is given here. Peptide text beside a SMILES is read from it.
Tests used:
Erythrocyte = assay: Hemolytic activity against mouse RBC measured after 1 hrs; type: toxicity, cell-based
Staphylococcus aureus [1] = assay: Antibacterial activity against gentamicin resistant Staphylococcus aureus ATCC 25923 assessed as fractional inhibitory concentration index in presence of rifampin by checkerboard assay; type: functional
Escherichia coli [2] = assay: Antibacterial activity against Escherichia coli ATCC 25922 assessed as fractional inhibitory concentration index in presence of kanamycin by checkerboard assay; type: functional
Cell membrane [3] = assay: Induction of cell membrane disruption in Staphylococcus aureus ATCC 25923 assessed as cell morphological damage measured after 120 mins by […] electron microscope analysis; type: subcellular
Bacillus subtilis = assay: Antibacterial activity against Bacillus subtilis ATCC 23857 assessed as growth inhibition measured after 18 to 24 hrs by CLSI based broth microdilution method; type: functional; details: time 18-24 hrs
Klebsiella pneumoniae = assay: Antibacterial activity against Klebsiella pneumoniae ATCC 700603 assessed as growth inhibition measured after 18 to 24 hrs by CLSI based broth microdilution method; type: functional; details: time 18-24 hrs
Staphylococcus aureus [4] = assay: Antibacterial activity against Staphylococcus aureus ATCC 25923 assessed as growth inhibition measured after 18 to 24 hrs by CLSI based broth microdilution method; type: functional; details: time 18-24 hrs
Escherichia coli [5] = assay: Antibacterial activity against gentamicin resistant Escherichia coli ATCC 25922 assessed as fractional inhibitory concentration index in presence of vancomycin by checkerboard assay; type: functional
Staphylococcus aureus [6] = assay: Antibacterial activity against rifampin resistant Staphylococcus aureus ATCC 25923 assessed as fractional inhibitory concentration index in presence of rifampin by checkerboard assay; type: functional
Cell membrane [7] = assay: Induction of cytoplasmic membrane depolarization in Escherichia coli ATCC 25922 assessed as increase in fluorescence intensity measured within 1 min by DiSC3-5 dye based fluorescence method; type: subcellular
Escherichia coli [8] = assay: Antibacterial activity against Escherichia coli ATCC 25922 assessed as fractional inhibitory concentration index in presence of rifampin by checkerboard assay; type: functional
Escherichia coli [9] = assay: Antibacterial activity against rifampin resistant Escherichia coli ATCC 25922 assessed as fractional inhibitory concentration index in presence of rifampin by checkerboard assay; type: functional
Cell membrane [10] = assay: Induction of cell membrane disruption in Escherichia coli ATCC 25922 assessed as cell morphological damage measured after 120 mins by […] electron microscope analysis; type: subcellular
Escherichia coli [11] = assay: Antibacterial activity against gentamicin resistant Escherichia coli ATCC 25922 assessed as fractional inhibitory concentration index in presence of kanamycin by checkerboard assay; type: functional
Staphylococcus aureus [12] = assay: Antibacterial activity against rifampin resistant Staphylococcus aureus ATCC 25923 assessed as fractional inhibitory concentration index in presence of vancomycin by checkerboard assay; type: functional
Staphylococcus aureus [13] = assay: In vivo antimicrobial activity against Staphylococcus aureus ATCC 25923 infected in BALB/C mouse pulmonary infection model at 5 to 10 mg/kg, ip; type: functional, organism-based; details: dose 5-10 mg/kg
Cell membrane [14] = assay: Induction of cell membrane disruption in Escherichia coli ATCC 25922 assessed as increase in PI uptake measured after 30 to 120 mins by propidium iodide staining based FACS flow cytometry analysis (reference value: 6.0 %); type: subcellular; details: time 30-120 min
Escherichia coli [15] = assay: Antibacterial activity against Escherichia coli ATCC 25922 assessed as fractional inhibitory concentration index in presence of gentamicin by checkerboard assay; type: functional
Escherichia coli [16] = assay: Antibacterial activity against gentamicin resistant Escherichia coli ATCC 25922 assessed as fractional inhibitory concentration index in presence of gentamicin by checkerboard assay; type: functional
Cell membrane [17] = assay: Induction of outer membrane permeabilization to NPN in Escherichia coli ATCC 25922 cells assessed as increase in fluorescence intensity by NPN fluorescent dye based microplate reader assay; type: subcellular
Escherichia coli [18] = assay: Antibacterial activity against rifampin resistant Escherichia coli ATCC 25922 assessed as fractional inhibitory concentration index in presence of kanamycin by checkerboard assay; type: functional
Staphylococcus aureus [19] = assay: Antibacterial activity against Staphylococcus aureus ATCC 25923 assessed as fractional inhibitory concentration index in presence of vancomycin by checkerboard assay; type: functional
Escherichia coli [20] = assay: Induction of cell membrane damage in Escherichia coli ATCC 25922 assessed as increase in nucleic acid leakage by microplate reader assay; type: functional, organism-based; details: time 0-6 hrs, TDE = time-dependent effect
Staphylococcus aureus [21] = assay: Antibacterial activity against Staphylococcus aureus ATCC 25923 assessed as fractional inhibitory concentration index in presence of kanamycin by checkerboard assay; type: functional
Staphylococcus aureus [22] = assay: Antibacterial activity against gentamicin resistant Staphylococcus aureus ATCC 25923 assessed as fractional inhibitory concentration index in presence of gentamicin by checkerboard assay; type: functional
[23] = Acute toxicity in BALB/c mouse assessed as pathological changes in heart at 20 to 80 mg/kg, ip administered as single dose measured for 7 days by H and E staining method; type: organism-based; details: in vivo, 168 h, dose 20-80 mg/kg, time 7 day
Cell membrane [24] = assay: Induction of inner membrane permeabilization in Escherichia coli ML-35 ATCC 43837 assessed as increase in absorbance at 1 to 4 times MIC measured at 420 nm in presence of ONPG by microplate reader assay; type: subcellular; details: DDE = dose-dependent effect
Staphylococcus aureus [25] = assay: Antibacterial activity against rifampin resistant Staphylococcus aureus ATCC 25923 assessed as fractional inhibitory concentration index in presence of kanamycin by checkerboard assay; type: functional
Escherichia coli [26] = assay: Antibacterial activity against Escherichia coli ATCC 25922 assessed as growth inhibition measured after 18 to 24 hrs by CLSI based broth microdilution method; type: functional; details: time 18-24 hrs
Staphylococcus aureus [27] = assay: Antibacterial activity against rifampin resistant Staphylococcus aureus ATCC 25923 assessed as fractional inhibitory concentration index in presence of gentamicin by checkerboard assay; type: functional
Staphylococcus aureus [28] = assay: Antibacterial activity against gentamicin resistant Staphylococcus aureus ATCC 25923 assessed as fractional inhibitory concentration index in presence of kanamycin by checkerboard assay; type: functional
Pseudomonas aeruginosa = assay: Antibacterial activity against Pseudomonas aeruginosa ATCC 27853 assessed as growth inhibition measured after 18 to 24 hrs by CLSI based broth microdilution method; type: functional; details: time 18-24 hrs
[29] = Stability of the compound in mouse serum at 10 mM assessed as half life by RP-HPLC analysis; type: ADME, cell-free
Staphylococcus aureus [30] = assay: Induction of cell membrane damage in Staphylococcus aureus ATCC 25923 assessed as increase in nucleic acid leakage by microplate reader assay; type: functional, organism-based; details: time 0-6 hrs, TDE = time-dependent effect
Staphylococcus aureus [31] = assay: Antibacterial activity against Staphylococcus aureus ATCC 25923 assessed as fractional inhibitory concentration index in presence of gentamicin by checkerboard assay; type: functional
[32] = Acute toxicity in BALB/c mouse assessed as pathological changes in liver at 20 to 80 mg/kg, ip administered as single dose measured for 7 days by H and E staining method; type: organism-based; details: in vivo, 168 h, dose 20-80 mg/kg, time 7 day
Cell membrane [33] = assay: Induction of cell membrane disruption in Escherichia coli ATCC 25922 assessed as cell morphological damage measured after 30 mins by […] electron microscope analysis; type: subcellular
Escherichia coli [34] = assay: Antibacterial activity against Escherichia coli ATCC 25922 assessed as fractional inhibitory concentration index in presence of vancomycin by checkerboard assay; type: functional
Escherichia coli [35] = assay: Antibacterial activity against Escherichia coli ATCC 25922 assessed as resistance development measured after 15 passages at sub-MIC concentration by resistance development assay; type: functional, organism-based
Escherichia coli [36] = assay: Antibacterial activity against rifampin resistant Escherichia coli ATCC 25922 assessed as fractional inhibitory concentration index in presence of gentamicin by checkerboard assay; type: functional

SMILES: CC[C@H](C)[C@H](NC(=O)[C@@H]1CCCN1C(=O)[C@H](CC(C)C)NC(=O)[C@@H](N)Cc1ccccc1)C(=O)N[C@H](C(=O)N[C@@H](C)C(=O)N[C@@H](CCCCN)C(=O)N[C@@H](CC(C)C)C(=O)N[C@@H](CC(C)C)C(=O)N[C@@H](CO)C(=O)NCC(=O)N[C@@H](CC(C)C)C(=O)N[C@@H](CC(C)C)C(N)=O)C(C)C (H-FLPIVAKLLSGLL-NH2)
- MHC10 (Erythrocyte): 12.53 µM
- fractional inhibitory concentration index (FICI) (Staphylococcus aureus [1]): 0.75
- fractional inhibitory concentration index (FICI) (Escherichia coli [2]): 1.125
- Activity (Cell membrane [3]): Active
- MIC (Bacillus subtilis): 4 µM (≈ 5.53 µg/mL)
- MIC (Klebsiella pneumoniae): > 128 µM
- MIC (Staphylococcus aureus [4]): 4 µM (≈ 5.53 µg/mL)
- fractional inhibitory concentration index (FICI) (Escherichia coli [5]): 0.75
- fractional inhibitory concentration index (FICI) (Staphylococcus aureus [6]): 1
- Activity (Cell membrane [7]): Active
- fractional inhibitory concentration index (FICI) (Escherichia coli [8]): 1.25
- fractional inhibitory concentration index (FICI) (Escherichia coli [9]): 1
- Activity (Cell membrane [10]): Active
- fractional inhibitory concentration index (FICI) (Escherichia coli [11]): 1
- fractional inhibitory concentration index (FICI) (Staphylococcus aureus [12]): 0.75
- Activity (Staphylococcus aureus [13]): Active
- Activity (Cell membrane [14]): 78.3%
- fractional inhibitory concentration index (FICI) (Escherichia coli [15]): 1
- fractional inhibitory concentration index (FICI) (Escherichia coli [16]): 1
- Activity (Cell membrane [17]): Active
- fractional inhibitory concentration index (FICI) (Escherichia coli [18]): 0.625
- fractional inhibitory concentration index (FICI) (Staphylococcus aureus [19]): 1.0625
- Activity (Escherichia coli [20]): Tde
- fractional inhibitory concentration index (FICI) (Staphylococcus aureus [21]): 0.75
- fractional inhibitory concentration index (FICI) (Staphylococcus aureus [22]): 0.75
- Activity [23]: Non-Toxic
- Activity (Cell membrane [24]): Dde
- fractional inhibitory concentration index (FICI) (Staphylococcus aureus [25]): 0.5625
- MIC (Escherichia coli [26]): 32 µM (≈ 44.2 µg/mL)
- fractional inhibitory concentration index (FICI) (Staphylococcus aureus [27]): 0.5625
- fractional inhibitory concentration index (FICI) (Staphylococcus aureus [28]): 0.75
- MIC (Pseudomonas aeruginosa): 128 µM (≈ 177 µg/mL)
- half-life at 10000 µM [29]: 5.55 h
- Activity (Staphylococcus aureus [30]): Tde
- fractional inhibitory concentration index (FICI) (Staphylococcus aureus [31]): 1
- Activity [32]: Non-Toxic
- Activity (Cell membrane [33]): Active
- fractional inhibitory concentration index (FICI) (Escherichia coli [34]): 0.625
- Activity (Escherichia coli [35]): Active
- fractional inhibitory concentration index (FICI) (Escherichia coli [36]): 0.625

Reference: ChEMBL document CHEMBL5108051, “Improving the Antimicrobial Performance of Amphiphilic Cationic Antimicrobial Peptides Using Glutamic Acid Full-Scan and Positive Charge Compensation Strategies” (J Med Chem, 2022)
